Assay results reported in patent US4482553A, “Benzothienylglycyl cephalosporin derivatives” (priority 1983, dated 1984).
In brackets after ≈: the same amount, converted by molar mass. Like-named read-outs stand apart in the source and are kept apart here.

Columns and labels:
Type in all cases: cell-based
Strep. A = test: standard in vitro agar dilution MIC (Table I), Strep. A; conditions: Table I, agar dilution, strain C203; read-out: MIC
Strep. D = test: standard in vitro agar dilution MIC (Table I), Strep. D
E. coli = test: standard in vitro agar dilution MIC (Table I), E. coli; conditions: Escherichia coli
Staph. aureus [1] = test: Expanded Spectrum MIC (Table II), Staph. aureus; conditions: Staphylococcus aureus
Source text: (§1) The antibacterial activity of several compounds of the invention has been determined in standard in vitro agar dilution assays against a variety of gram positive and gram negative microorganisms. The following Tables present typical minimum inhibitory concentrations (MIC's) in μg/ml for several compounds of the invention when evaluated against the indicated microorganisms. MIC's for several known compounds are also presented for comparison.

Staph. epi [2] = test: Expanded Spectrum MIC (Table II), Staph. epi
Source text: as §1

Strep. PN = test: standard in vitro agar dilution MIC (Table I), Strep. PN; conditions: strain PARK, read-out: MIC
Staph. aureus [3] = test: standard in vitro agar dilution MIC (Table I), Staph. aureus; conditions: Staphylococcus aureus
H. influ. [4] = test: Expanded Spectrum MIC (Table II), H. influ.
Source text: as §1

Staph. epi [5] = test: standard in vitro agar dilution MIC (Table I), Staph. epi
H. influ. [6] = test: standard in vitro agar dilution MIC (Table I), H. influ.
Source text: as §1

Klebsiella = test: standard in vitro agar dilution MIC (Table I), Klebsiella
[7] = Table I, agar dilution, strain 222, read-out: MIC
[8] = Table I, agar dilution, strain EPI1, read-out: MIC
[9] = Klebsiella, Table I, agar dilution, strain KAE, read-out: MIC
[10] = Klebsiella, Table I, agar dilution, strain X26, read-out: MIC
[11] = Klebsiella, Table I, agar dilution, strain X68, read-out: MIC
[12] = Table I, agar dilution, strain X68

With `CC1=C(C(=O)O)N2C(=O)C(NC(=O)[C@H](N)c3cc4c(Cl)cccc4s3)C2SC1` (stereo partly drawn) [Ex. 7A, D-7-(4-chloro-2-benzothienylglycylamido)-3-methyl-3-cephem-4-carboxylic acid] the MIC (Strep. A) was 0.25 µg/mL (≈ 0.571 µM), the MIC (Strep. D; strain 2041, read-out: MIC) was 32 µg/mL (≈ 73.1 µM) and the MIC (Strep. D; strain X66, read-out: MIC) was 32 µg/mL (≈ 73.1 µM). The MIC (E. coli; strain EC14) was > 128 µg/mL, the MIC (E. coli; strain N10) was > 128 µg/mL and the MIC (E. coli; strain TEM) was > 128 µg/mL. It also gave an MIC (Staph. aureus [1]; strain 239, read-out: MIC) of 0.5 µg/mL (≈ 1.14 µM), an MIC (Staph. aureus [1]; strain S224, read-out: MIC) of 0.5 µg/mL (≈ 1.14 µM) and an MIC (Staph. aureus [1]; strain S225, read-out: MIC) of 0.5 µg/mL (≈ 1.14 µM). The MIC (Staph. aureus [1]; strain S226, read-out: MIC) was 0.5 µg/mL (≈ 1.14 µM), the MIC (Staph. aureus [1]; strain S227, read-out: MIC) was 0.5 µg/mL (≈ 1.14 µM) and the MIC (Staph. aureus [1]; strain S228, read-out: MIC) was 0.5 µg/mL (≈ 1.14 µM). The MIC (Staph. aureus [1]; strain S229, read-out: MIC) was 0.5 µg/mL (≈ 1.14 µM), the MIC (Staph. aureus [1]; strain S230, read-out: MIC) was 0.5 µg/mL (≈ 1.14 µM) and the MIC (Staph. aureus [1]; strain S231, read-out: MIC) was 0.25 µg/mL (≈ 0.571 µM). For the same molecule, the MIC (Staph. aureus [1]; strain S234, read-out: MIC) was 0.5 µg/mL (≈ 1.14 µM), the MIC (Staph. aureus [1]; strain S237, read-out: MIC) was 0.5 µg/mL (≈ 1.14 µM) and the MIC (Staph. aureus [1]; strain S238, read-out: MIC) was 0.5 µg/mL (≈ 1.14 µM). The MIC (Staph. epi [2]; strain 219, read-out: MIC) was 0.5 µg/mL (≈ 1.14 µM), the MIC (Staph. epi [2]; strain 269, read-out: MIC) was 1 µg/mL (≈ 2.28 µM) and the MIC (Staph. epi [2]; strain 270, read-out: MIC) was 2 µg/mL (≈ 4.57 µM). The MIC (Staph. epi [2]; strain 285, read-out: MIC) was 1 µg/mL (≈ 2.28 µM), the MIC (Staph. epi [2]; strain 286, read-out: MIC) was 0.25 µg/mL (≈ 0.571 µM) and the MIC (Staph. epi [2]; strain EPI1, read-out: MIC) was 4 µg/mL (≈ 9.13 µM). The MIC (Strep. PN) was 0.5 µg/mL (≈ 1.14 µM), the MIC (Staph. aureus [3]; strain V41, read-out: MIC) was 2 µg/mL (≈ 4.57 µM) and the MIC (Staph. aureus [3]; strain X1.1, read-out: MIC) was 0.5 µg/mL (≈ 1.14 µM). The MIC (Staph. aureus [3]; strain X400, read-out: MIC) was 32 µg/mL (≈ 73.1 µM), the MIC (H. influ. [4]; strain 76, read-out: MIC) was 16 µg/mL (≈ 36.5 µM) and the MIC (H. influ. [4]; strain 158, read-out: MIC) was 8 µg/mL (≈ 18.3 µM). The MIC (H. influ. [4]; strain 169, read-out: MIC) was 8 µg/mL (≈ 18.3 µM), the MIC (H. influ. [4]; strain 312, read-out: MIC) was 16 µg/mL (≈ 36.5 µM) and the MIC (H. influ. [4]; strain 1683, read-out: MIC) was 4 µg/mL (≈ 9.13 µM). For the same molecule, the MIC (H. influ. [4]; strain 1930, read-out: MIC) was 16 µg/mL (≈ 36.5 µM), the MIC (H. influ. [4]; strain 4842, read-out: MIC) was 8 µg/mL (≈ 18.3 µM) and the MIC (H. influ. [4]; strain C.L., read-out: MIC) was 32 µg/mL (≈ 73.1 µM). It also gave an MIC (H. influ. [4]; strain HESS, read-out: MIC) of 32 µg/mL (≈ 73.1 µM), an MIC (H. influ. [4]; strain M366, read-out: MIC) of 32 µg/mL (≈ 73.1 µM) and an MIC (H. influ. [4]; strain R465, read-out: MIC) of 16 µg/mL (≈ 36.5 µM). The MIC (H. influ. [4]; strain STEL, read-out: MIC) was 32 µg/mL (≈ 73.1 µM), the MIC (Staph. epi [5]; [7]) was 1 µg/mL (≈ 2.28 µM) and the MIC (Staph. epi [5]; [8]) was 2 µg/mL (≈ 4.57 µM). The MIC (H. influ. [6]; strain 76, read-out: MIC) was 4 µg/mL (≈ 9.13 µM), the MIC (Klebsiella; [9]) was > 128 µg/mL and the MIC (Klebsiella; [10]) was 8 µg/mL (≈ 18.3 µM). The MIC (Klebsiella; [11]) was > 128 µg/mL.
For `CC1=C(C(=O)O)N2C(=O)C(NC(=O)[C@@H](N)c3cc4c(Cl)cccc4s3)C2SC1` (stereo partly drawn) [Ex. 7B, L-7-(4-chloro-2-benzothienylglycylamido)-3-methyl-3-cephem-4-carboxylic acid], the MIC (Strep. A) was 0.5 µg/mL (≈ 1.14 µM), the MIC (Strep. D; strain 2041, read-out: MIC) was 128 µg/mL (≈ 292 µM) and the MIC (Strep. D; strain X66, read-out: MIC) was > 128 µg/mL. For the same molecule, the MIC (E. coli; strain EC14) was > 128 µg/mL, the MIC (E. coli; strain N10) was > 128 µg/mL and the MIC (E. coli; strain TEM) was > 128 µg/mL. It also gave an MIC (Strep. PN) of 2 µg/mL (≈ 4.57 µM), an MIC (Staph. aureus [3]; strain V41, read-out: MIC) of 16 µg/mL (≈ 36.5 µM) and an MIC (Staph. aureus [3]; strain X1.1, read-out: MIC) of 2 µg/mL (≈ 4.57 µM). It also gave an MIC (Staph. aureus [3]; strain X400, read-out: MIC) of 128 µg/mL (≈ 292 µM), an MIC (Staph. epi [5]; [7]) of 4 µg/mL (≈ 9.13 µM) and an MIC (Staph. epi [5]; [8]) of 8 µg/mL (≈ 18.3 µM). For the same molecule, the MIC (H. influ. [6]; strain 76, read-out: MIC) was 4 µg/mL (≈ 9.13 µM), the MIC (H. influ. [6]; strain C.L., read-out: MIC) was 64 µg/mL (≈ 146 µM) and the MIC (Klebsiella; [9]) was > 128 µg/mL. For the same molecule, the MIC (Klebsiella; [10]) was 32 µg/mL (≈ 73.1 µM) and the MIC (Klebsiella; [11]) was > 128 µg/mL.
`COc1c([C@@H](N)C(=O)NC2C(=O)N3C(C(=O)O)=C(C)CSC23)sc2ccccc12` (stereo partly drawn) [Ex. 9A, D-7-(3-methoxy-2-benzothienylglycylamido)-3-methyl-3-cephem-4-carboxylic acid] was tested, and the MIC (Strep. A) was 1 µg/mL (≈ 2.31 µM), the MIC (Strep. D; strain 2041) was 128 µg/mL (≈ 295 µM) and the MIC (Strep. D; strain X66) was > 128 µg/mL. The MIC (E. coli; strain EC14) was 128 µg/mL (≈ 295 µM), the MIC (E. coli; strain N10) was > 128 µg/mL and the MIC (E. coli; strain TEM) was > 128 µg/mL. For the same molecule, the MIC (Staph. aureus [1]; strain 239, read-out: MIC) was 0.5 µg/mL (≈ 1.15 µM), the MIC (Staph. aureus [1]; strain S224, read-out: MIC) was 0.25 µg/mL (≈ 0.577 µM) and the MIC (Staph. aureus [1]; strain S225, read-out: MIC) was 0.25 µg/mL (≈ 0.577 µM). The MIC (Staph. aureus [1]; strain S226, read-out: MIC) was 0.5 µg/mL (≈ 1.15 µM), the MIC (Staph. aureus [1]; strain S227, read-out: MIC) was 0.25 µg/mL (≈ 0.577 µM) and the MIC (Staph. aureus [1]; strain S228, read-out: MIC) was 0.25 µg/mL (≈ 0.577 µM). For the same molecule, the MIC (Staph. aureus [1]; strain S229, read-out: MIC) was 0.5 µg/mL (≈ 1.15 µM), the MIC (Staph. aureus [1]; strain S230, read-out: MIC) was 0.25 µg/mL (≈ 0.577 µM) and the MIC (Staph. aureus [1]; strain S231, read-out: MIC) was 0.25 µg/mL (≈ 0.577 µM). The MIC (Staph. aureus [1]; strain S234, read-out: MIC) was 0.5 µg/mL (≈ 1.15 µM), the MIC (Staph. aureus [1]; strain S237, read-out: MIC) was 0.5 µg/mL (≈ 1.15 µM) and the MIC (Staph. aureus [1]; strain S238, read-out: MIC) was 1 µg/mL (≈ 2.31 µM). The MIC (Staph. epi [2]; strain 219, read-out: MIC) was 0.25 µg/mL (≈ 0.577 µM), the MIC (Staph. epi [2]; strain 269, read-out: MIC) was 1 µg/mL (≈ 2.31 µM) and the MIC (Staph. epi [2]; strain 270, read-out: MIC) was 1 µg/mL (≈ 2.31 µM). The MIC (Staph. epi [2]; strain 285, read-out: MIC) was 0.5 µg/mL (≈ 1.15 µM), the MIC (Staph. epi [2]; strain 286, read-out: MIC) was 0.25 µg/mL (≈ 0.577 µM) and the MIC (Staph. epi [2]; strain EPI1, read-out: MIC) was 4 µg/mL (≈ 9.23 µM). It also gave an MIC (Strep. PN) of 4 µg/mL (≈ 9.23 µM), an MIC (Staph. aureus [3]; strain S13E) of 64 µg/mL (≈ 148 µM) and an MIC (Staph. aureus [3]; strain V41, read-out: MIC) of 64 µg/mL (≈ 148 µM). For the same molecule, the MIC (Staph. aureus [3]; strain X1.1, read-out: MIC) was 4 µg/mL (≈ 9.23 µM), the MIC (Staph. aureus [3]; strain X400, read-out: MIC) was > 128 µg/mL and the MIC (Staph. epi [5]; [7]) was 8 µg/mL (≈ 18.5 µM). It also gave an MIC (Staph. epi [5]; [8]) of 32 µg/mL (≈ 73.8 µM), an MIC (H. influ. [6]; strain 76, read-out: MIC) of 32 µg/mL (≈ 73.8 µM) and an MIC (H. influ. [6]; strain C.L., read-out: MIC) of 64 µg/mL (≈ 148 µM). The MIC (Klebsiella; Klebsiella) was > 128 µg/mL, the MIC (Klebsiella; [10]) was 32 µg/mL (≈ 73.8 µM) and the MIC (Klebsiella; [12]) was > 128 µg/mL.
`COc1c([C@H](N)C(=O)NC2C(=O)N3C(C(=O)O)=C(C)CSC23)sc2ccccc12` (stereo partly drawn) [Ex. 9B, L-7-(3-methoxy-2-benzothienylglycylamido)-3-methyl-3-cephem-4-carboxylic acid] was tested, and the MIC (Strep. A) was 4 µg/mL (≈ 9.23 µM), the MIC (Strep. D; strain 2041) was > 128 µg/mL and the MIC (Strep. D; strain X66) was > 128 µg/mL. The MIC (E. coli; strain EC14) was > 128 µg/mL, the MIC (E. coli; strain N10) was > 128 µg/mL and the MIC (E. coli; strain TEM) was > 128 µg/mL. For the same molecule, the MIC (Strep. PN) was 32 µg/mL (≈ 73.8 µM), the MIC (Staph. aureus [3]; strain S13E) was > 128 µg/mL and the MIC (Staph. aureus [3]; strain V41, read-out: MIC) was > 128 µg/mL. For the same molecule, the MIC (Staph. aureus [3]; strain X1.1, read-out: MIC) was 16 µg/mL (≈ 36.9 µM), the MIC (Staph. aureus [3]; strain X400, read-out: MIC) was > 128 µg/mL and the MIC (Staph. epi [5]) was 128 µg/mL (≈ 295 µM). The MIC (Staph. epi [5]; [7]) was 32 µg/mL (≈ 73.8 µM), the MIC (H. influ. [6]; strain 76, read-out: MIC) was 64 µg/mL (≈ 148 µM) and the MIC (H. influ. [6]; strain C.L.) was > 128 µg/mL. For the same molecule, the MIC (Klebsiella; Klebsiella) was > 128 µg/mL, the MIC (Klebsiella; Table I, agar dilution, strain KAE) was > 128 µg/mL and the MIC (Klebsiella; [12]) was > 128 µg/mL.
